Data taken from publication PMC2644664, “Effects of the K65R and K65R/M184V reverse transcriptase mutations in subtype C HIV on enzyme function and drug resistance” (Retrovirology, 2009).

Tests used:
[1] = biological target: T1, subtype C HIV-1 RT (cWT), recombinant p66/p51 heterodimer; assay: steady-state filter-binding assay, [3H]dATP incorporation; format: biochemical, Human immunodeficiency virus type 1; conditions: dPR primer on subtype C HIV-1 PBS RNA, 50 μM dCTP/dGTP/dTTP, 5 mM MgCl2, pH 7.8, 37°C
T1 construct: gene pol; mature RT cut from Gag-Pol polyprotein; plasmid pcRT6H-PROT, His-tagged, E. coli M15(pREP4); with p51 RT
Source text: steady-state filter-binding assay, [3H]dATP incorporation on subtype C HIV-1 RT (cWT), recombinant p66/p51 heterodimer

[2] = system: T1, subtype C HIV-1 RT (cWT), recombinant p66/p51 heterodimer; assay: gel-based primer extension, inhibition of full-length DNA synthesis; format: biochemical, Human immunodeficiency virus type 1; conditions: 19D/57D DNA primer/template
Source text: gel-based primer extension, inhibition of full-length DNA synthesis on subtype C HIV-1 RT (cWT), recombinant p66/p51 heterodimer | we determined the efficiencies of incorporation of TFV-DP using subtype C WT

SMILES | Ki ([1]; variable dATP, chain terminator, read-out: Ki(TFV), μM^b) [µM] | IC50 [2] [nM] | Km ([1]; no TFV-DP) [µM]
C[C@H](Cn1cnc2c(N)ncnc21)OCP(=O)(O)OP(=O)(O)OP(=O)(O)O [TFV-DP] | 0.24 ± 0.04 | 2600 ± 500 | 
Nc1ncnc2c1ncn2[C@H]1C[C@H](O)[C@@H](COP(=O)(O)OP(=O)(O)OP(=O)(O)O)O1 [dATP] |  |  | 0.51 ± 0.04
